# Reference: PubChem BioAssay AID1259407 (Chemical Carcinogenesis Research Information System (CCRIS), 2018)
# Activity calls are given as the source filed them. The rule behind the calls is not given here.
# System: CCRIS mutagenicity, Ames/micronucleus/aberration tests
# Assay: CCRIS mutagenicity studies
compound,measurement,setting,value
Nc1ccc(NCCO)c([N+](=O)[O-])c1,mutagenic call,"Test System: AMES SALMONELLA TYPHIMURIUM, Strain/Indicator: TA97, Metabolic Activation: HAMSTER, LIVER, S-9, AROCLOR 1254 (10%), Method: PREINCUBATION",active; positive
same,mutagenic call,"Test System: AMES SALMONELLA TYPHIMURIUM, Strain/Indicator: TA97, Metabolic Activation: HAMSTER, LIVER, S-9, AROCLOR 1254, Method: PREINCUBATION",active; positive
same,mutagenic call,"Test System: AMES SALMONELLA TYPHIMURIUM, Strain/Indicator: TA97, Metabolic Activation: NONE, Method: PREINCUBATION",active; positive
same,mutagenic call,"Test System: AMES SALMONELLA TYPHIMURIUM, Strain/Indicator: TA97, Metabolic Activation: RAT, LIVER, S-9, AROCLOR 1254 (10%), Method: PREINCUBATION",active; positive
same,mutagenic call,"Test System: AMES SALMONELLA TYPHIMURIUM, Strain/Indicator: TA97, Metabolic Activation: RAT, LIVER, S-9, AROCLOR 1254, Method: PREINCUBATION",active; positive
same,mutagenic call,"Test System: AMES SALMONELLA TYPHIMURIUM, Strain/Indicator: TA98, Metabolic Activation: HAMSTER, LIVER, S-9, AROCLOR 1254 (10%), Method: PREINCUBATION",active; positive
same,mutagenic call,"Test System: AMES SALMONELLA TYPHIMURIUM, Strain/Indicator: TA98, Metabolic Activation: HAMSTER, LIVER, S-9, AROCLOR 1254, Method: PREINCUBATION",active; positive
same,mutagenic call,"Test System: AMES SALMONELLA TYPHIMURIUM, Strain/Indicator: TA98, Metabolic Activation: NONE, Method: PREINCUBATION",active; positive
same,mutagenic call,"Test System: AMES SALMONELLA TYPHIMURIUM, Strain/Indicator: TA98, Metabolic Activation: RAT, LIVER, S-9, AROCLOR 1254 (10%), Method: PREINCUBATION",active; positive
same,mutagenic call,"Test System: AMES SALMONELLA TYPHIMURIUM, Strain/Indicator: TA98, Metabolic Activation: RAT, LIVER, S-9, AROCLOR 1254, Method: PREINCUBATION",active; positive
same,mutagenic call,"Test System: AMES SALMONELLA TYPHIMURIUM, Strain/Indicator: TA100, Metabolic Activation: HAMSTER, LIVER, S-9, AROCLOR 1254 (10%), Method: PREINCUBATION",active; positive
same,mutagenic call,"Test System: AMES SALMONELLA TYPHIMURIUM, Strain/Indicator: TA100, Metabolic Activation: HAMSTER, LIVER, S-9, AROCLOR 1254, Method: PREINCUBATION",active; positive
same,mutagenic call,"Test System: AMES SALMONELLA TYPHIMURIUM, Strain/Indicator: TA100, Metabolic Activation: NONE, Method: PREINCUBATION",active; positive
same,mutagenic call,"Test System: AMES SALMONELLA TYPHIMURIUM, Strain/Indicator: TA100, Metabolic Activation: RAT, LIVER, S-9, AROCLOR 1254 (10%), Method: PREINCUBATION",active; positive
same,mutagenic call,"Test System: AMES SALMONELLA TYPHIMURIUM, Strain/Indicator: TA100, Metabolic Activation: RAT, LIVER, S-9, AROCLOR 1254, Method: PREINCUBATION",active; positive
same,mutagenic call,"Test System: AMES SALMONELLA TYPHIMURIUM, Strain/Indicator: TA1535, Metabolic Activation: HAMSTER, LIVER, S-9, AROCLOR 1254 (10%), Method: PREINCUBATION",inactive; negative
same,mutagenic call,"Test System: AMES SALMONELLA TYPHIMURIUM, Strain/Indicator: TA1535, Metabolic Activation: HAMSTER, LIVER, S-9, AROCLOR 1254, Method: PREINCUBATION",inactive; negative
same,mutagenic call,"Test System: AMES SALMONELLA TYPHIMURIUM, Strain/Indicator: TA1535, Metabolic Activation: NONE, Method: PREINCUBATION",inactive; negative
same,mutagenic call,"Test System: AMES SALMONELLA TYPHIMURIUM, Strain/Indicator: TA1535, Metabolic Activation: RAT, LIVER, S-9, AROCLOR 1254 (10%), Method: PREINCUBATION",inactive; negative
same,mutagenic call,"Test System: AMES SALMONELLA TYPHIMURIUM, Strain/Indicator: TA1535, Metabolic Activation: RAT, LIVER, S-9, AROCLOR 1254, Method: PREINCUBATION",inactive; negative
CC(C)C(=O)N=c1sn(C(=O)C(C)C)c2ccc([N+](=O)[O-])cc12,mutagenic call,"Test System: AMES SALMONELLA TYPHIMURIUM, Strain/Indicator: TA100, Metabolic Activation: S-9, Method: STANDARD PLATE",active; positive
COCc1ccc([N+]#N)cc1,mutagenic call,"Test System: AMES SALMONELLA TYPHIMURIUM, Strain/Indicator: TA102, Metabolic Activation: NONE, Method: STANDARD PLATE",active; positive
same,mutagenic call,"Test System: CHINESE HAMSTER V-79, Strain/Indicator: V-79/6-THIOGUANINE, Metabolic Activation: NONE",active; positive
